Values quoted from earlier work in patent US20110155130A1, “Dronabinol Treatment for Migraines” (Unimed Pharmaceuticals, Inc., priority 2005, published 2011).

Conditions: 5 mg to 20 mg oral doses of THC; randomized controlled clinical trials

## CCCCCc1cc(O)c2c(c1)OC(C)(C)[C@@H]1CCC(C)=C[C@@H]21 [THC, (6a R-trans)-6a,7,8,10a-tetrahydro-6,6,9-trimethyl-3-pentyl-6H-dibenzo[b,d]pyran-1-ol]
  effectiveness compared with codeine: as effective as 50 mg to 120 mg of codeine
